# Measured values reported in the kinase profiling compilation of Christmann-Franck et al. (2016).
# Experiments:
# Assay in all cases: radiometric filter-binding kinase assay
# MAP3K5 (human) = MAP3K5 (human) (UniProt Q99683)
# DYRK2 (human) = DYRK2 (human) (UniProt Q92630)
# MAPK10 (human) = MAPK10 (human) (UniProt P53779)
# MAP3K1 (human) = MAP3K1 (human) (UniProt Q13233)
# MAP3K11 (human) = MAP3K11 (human) (UniProt Q16584)
# INSR (human) = INSR (human) (UniProt P06213)
# EPHB4 (human) = EPHB4 (human) (UniProt P54760)
# EPHA2 (human) = EPHA2 (human) (UniProt P29317)
# TAOK1 (human) = TAOK1 (human) (UniProt Q7L7X3)
# STK3 (human) = STK3 (human) (UniProt Q13188)
# BRSK1 (human) = BRSK1 (human) (UniProt Q8TDC3)
# EPHB1 (human) = EPHB1 (human) (UniProt P54762)
# FLT1 (human) = FLT1 (human) (UniProt P17948)
# SYK (human) = SYK (human) (UniProt P43405)
# HIPK2 (human) = HIPK2 (human) (UniProt Q9H2X6)
# PRKCA (human) = PRKCA (human) (UniProt P17252)
# AURKA (human) = AURKA (human) (UniProt O14965)
# HIPK1 (human) = HIPK1 (human) (UniProt Q86Z02)
# MAPK8 (human) = MAPK8 (human) (UniProt P45983)
# EPHB2 (human) = EPHB2 (human) (UniProt P29323)
# [1] = test system: RPS6KB1 (human), P23443 [T412E]
# BRSK2 (human) = BRSK2 (human) (UniProt Q8IWQ3)
# GCK (human) = GCK (human) (UniProt Q12851)
# TBK1 (human) = TBK1 (human) (UniProt Q9UHD2)
# [2] = test system: AKT1 (human), P31749 [S473D]
# MAPK11 (human) = MAPK11 (human) (UniProt Q15759)
# CaMK1 (human) = CaMK1 (human) (UniProt Q14012)
# PIM1 (human) = PIM1 (human) (UniProt P11309)
# MARK3 (human) = MARK3 (human) (UniProt P27448)
# MAPK9 (human) = MAPK9 (human) (UniProt P45984)
# BTK (human) = BTK (human) (UniProt Q06187)
# MAP2K1 (human) = MAP2K1 (human) (UniProt Q02750)
# MAPKAPK5 (human) = MAPKAPK5 (human) (UniProt Q8IW41)
# DYRK3 (human) = DYRK3 (human) (UniProt O43781)
# YES1 (human) = YES1 (human) (UniProt P07947)
# JAK2 JH1 JH2 (human) = JAK2 JH1 JH2 (human) (UniProt O60674)
# Chain of BRSK2 (human) (Q8IWQ3 whole entry, looked up): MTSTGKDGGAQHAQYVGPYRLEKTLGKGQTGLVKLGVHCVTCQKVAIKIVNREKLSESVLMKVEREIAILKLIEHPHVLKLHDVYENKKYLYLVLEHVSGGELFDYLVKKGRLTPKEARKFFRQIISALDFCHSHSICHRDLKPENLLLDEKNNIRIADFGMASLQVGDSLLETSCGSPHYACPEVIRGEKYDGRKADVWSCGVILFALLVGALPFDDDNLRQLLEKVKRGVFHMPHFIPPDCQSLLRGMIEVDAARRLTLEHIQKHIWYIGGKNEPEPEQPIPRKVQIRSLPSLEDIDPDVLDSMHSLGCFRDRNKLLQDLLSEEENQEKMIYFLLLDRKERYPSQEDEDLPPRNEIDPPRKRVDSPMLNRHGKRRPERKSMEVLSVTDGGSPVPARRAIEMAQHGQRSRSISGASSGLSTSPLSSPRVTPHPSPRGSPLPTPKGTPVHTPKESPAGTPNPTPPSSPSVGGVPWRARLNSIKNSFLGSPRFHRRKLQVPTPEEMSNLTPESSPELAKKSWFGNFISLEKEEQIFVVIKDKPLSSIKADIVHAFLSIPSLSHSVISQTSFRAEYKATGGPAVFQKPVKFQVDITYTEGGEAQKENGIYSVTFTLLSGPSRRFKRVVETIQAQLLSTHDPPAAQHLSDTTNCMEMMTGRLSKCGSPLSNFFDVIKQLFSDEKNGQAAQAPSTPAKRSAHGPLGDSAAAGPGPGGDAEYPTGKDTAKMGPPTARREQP
# Chain of HIPK2 (human) (Q9H2X6 whole entry, looked up): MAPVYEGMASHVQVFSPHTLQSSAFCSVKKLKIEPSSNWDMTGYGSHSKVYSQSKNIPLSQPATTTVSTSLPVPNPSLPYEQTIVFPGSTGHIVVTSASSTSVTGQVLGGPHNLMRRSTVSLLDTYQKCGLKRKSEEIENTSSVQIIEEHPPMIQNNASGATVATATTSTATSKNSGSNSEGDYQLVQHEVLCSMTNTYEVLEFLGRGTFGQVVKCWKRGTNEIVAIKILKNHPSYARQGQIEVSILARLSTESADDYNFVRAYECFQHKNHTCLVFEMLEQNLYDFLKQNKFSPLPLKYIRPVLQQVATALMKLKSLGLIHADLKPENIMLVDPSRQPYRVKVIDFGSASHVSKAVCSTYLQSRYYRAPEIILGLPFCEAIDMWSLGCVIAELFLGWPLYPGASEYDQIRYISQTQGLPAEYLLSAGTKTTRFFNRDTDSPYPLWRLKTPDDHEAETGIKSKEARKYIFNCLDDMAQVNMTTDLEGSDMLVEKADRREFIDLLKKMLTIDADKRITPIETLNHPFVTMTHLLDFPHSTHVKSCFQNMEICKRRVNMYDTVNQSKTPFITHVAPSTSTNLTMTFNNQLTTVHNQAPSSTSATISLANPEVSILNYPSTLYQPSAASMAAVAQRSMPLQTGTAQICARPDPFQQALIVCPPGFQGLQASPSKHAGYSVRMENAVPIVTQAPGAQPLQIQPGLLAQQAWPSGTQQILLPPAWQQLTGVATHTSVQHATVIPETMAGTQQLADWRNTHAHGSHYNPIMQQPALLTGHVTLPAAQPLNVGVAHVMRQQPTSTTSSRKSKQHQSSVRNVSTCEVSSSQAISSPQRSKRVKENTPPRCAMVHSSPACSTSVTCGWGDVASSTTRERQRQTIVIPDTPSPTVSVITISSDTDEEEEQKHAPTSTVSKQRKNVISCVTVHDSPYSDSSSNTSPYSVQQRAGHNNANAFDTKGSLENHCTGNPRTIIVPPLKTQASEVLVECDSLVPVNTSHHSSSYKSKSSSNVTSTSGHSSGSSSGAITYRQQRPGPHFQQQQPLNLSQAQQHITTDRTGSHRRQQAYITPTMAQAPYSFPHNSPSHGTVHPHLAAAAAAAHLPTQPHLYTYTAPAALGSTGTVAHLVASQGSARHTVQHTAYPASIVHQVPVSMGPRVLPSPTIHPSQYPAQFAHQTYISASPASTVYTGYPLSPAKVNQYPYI
# Chain of FLT1 (human) (P17948 whole entry, looked up): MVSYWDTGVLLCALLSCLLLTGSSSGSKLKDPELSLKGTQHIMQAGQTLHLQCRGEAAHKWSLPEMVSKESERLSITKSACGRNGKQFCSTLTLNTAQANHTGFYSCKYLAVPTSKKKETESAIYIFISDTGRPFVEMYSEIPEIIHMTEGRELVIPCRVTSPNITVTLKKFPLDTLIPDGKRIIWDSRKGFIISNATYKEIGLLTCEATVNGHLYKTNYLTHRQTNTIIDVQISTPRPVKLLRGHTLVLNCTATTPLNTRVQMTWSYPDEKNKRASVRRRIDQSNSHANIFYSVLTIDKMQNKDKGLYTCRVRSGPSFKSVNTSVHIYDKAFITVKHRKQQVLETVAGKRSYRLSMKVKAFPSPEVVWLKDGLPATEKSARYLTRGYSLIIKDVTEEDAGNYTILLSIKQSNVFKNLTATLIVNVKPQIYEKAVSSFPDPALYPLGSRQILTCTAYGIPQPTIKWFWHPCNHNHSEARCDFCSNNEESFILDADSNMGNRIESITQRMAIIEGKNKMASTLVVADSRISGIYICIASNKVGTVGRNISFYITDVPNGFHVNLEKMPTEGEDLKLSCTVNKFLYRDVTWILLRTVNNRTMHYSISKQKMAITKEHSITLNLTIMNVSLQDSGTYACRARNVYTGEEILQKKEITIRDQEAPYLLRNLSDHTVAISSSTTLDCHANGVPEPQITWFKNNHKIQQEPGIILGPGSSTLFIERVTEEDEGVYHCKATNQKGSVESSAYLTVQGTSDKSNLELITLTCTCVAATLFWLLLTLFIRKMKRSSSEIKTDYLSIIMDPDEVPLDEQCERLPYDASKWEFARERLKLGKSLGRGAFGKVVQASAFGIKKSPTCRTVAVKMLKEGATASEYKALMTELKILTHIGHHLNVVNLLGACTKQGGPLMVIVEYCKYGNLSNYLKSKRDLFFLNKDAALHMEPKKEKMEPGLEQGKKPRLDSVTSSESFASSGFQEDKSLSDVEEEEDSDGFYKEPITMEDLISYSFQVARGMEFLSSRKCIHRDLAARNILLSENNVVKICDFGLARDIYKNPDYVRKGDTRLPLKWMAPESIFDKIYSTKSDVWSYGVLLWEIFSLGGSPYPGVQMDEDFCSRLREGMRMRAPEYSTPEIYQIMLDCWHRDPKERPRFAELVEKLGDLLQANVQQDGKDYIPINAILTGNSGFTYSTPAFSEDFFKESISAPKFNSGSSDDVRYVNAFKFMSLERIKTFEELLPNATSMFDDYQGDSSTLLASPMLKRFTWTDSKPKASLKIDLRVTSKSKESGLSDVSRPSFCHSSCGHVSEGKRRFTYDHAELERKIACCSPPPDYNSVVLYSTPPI
# Chain of TBK1 (human) (Q9UHD2 whole entry, looked up): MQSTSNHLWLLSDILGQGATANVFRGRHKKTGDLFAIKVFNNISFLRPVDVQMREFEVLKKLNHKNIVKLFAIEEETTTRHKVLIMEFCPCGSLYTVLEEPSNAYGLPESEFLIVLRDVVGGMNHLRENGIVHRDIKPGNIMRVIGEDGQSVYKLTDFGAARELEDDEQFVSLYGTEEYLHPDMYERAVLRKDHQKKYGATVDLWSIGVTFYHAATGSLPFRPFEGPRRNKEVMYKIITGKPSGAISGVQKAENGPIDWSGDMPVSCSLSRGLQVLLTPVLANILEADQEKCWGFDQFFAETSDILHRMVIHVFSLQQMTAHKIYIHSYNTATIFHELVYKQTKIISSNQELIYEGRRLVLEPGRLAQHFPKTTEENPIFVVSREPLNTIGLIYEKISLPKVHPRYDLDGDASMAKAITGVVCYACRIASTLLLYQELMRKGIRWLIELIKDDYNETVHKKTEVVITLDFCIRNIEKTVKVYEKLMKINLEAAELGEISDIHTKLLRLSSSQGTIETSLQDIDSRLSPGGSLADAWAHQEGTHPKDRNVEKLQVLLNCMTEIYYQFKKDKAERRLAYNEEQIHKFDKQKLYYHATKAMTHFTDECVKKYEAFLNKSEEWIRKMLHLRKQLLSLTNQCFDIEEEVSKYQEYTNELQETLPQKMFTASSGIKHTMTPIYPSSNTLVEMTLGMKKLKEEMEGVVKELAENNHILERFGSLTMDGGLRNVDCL
# Chain of PIM1 (human) (P11309 whole entry, looked up): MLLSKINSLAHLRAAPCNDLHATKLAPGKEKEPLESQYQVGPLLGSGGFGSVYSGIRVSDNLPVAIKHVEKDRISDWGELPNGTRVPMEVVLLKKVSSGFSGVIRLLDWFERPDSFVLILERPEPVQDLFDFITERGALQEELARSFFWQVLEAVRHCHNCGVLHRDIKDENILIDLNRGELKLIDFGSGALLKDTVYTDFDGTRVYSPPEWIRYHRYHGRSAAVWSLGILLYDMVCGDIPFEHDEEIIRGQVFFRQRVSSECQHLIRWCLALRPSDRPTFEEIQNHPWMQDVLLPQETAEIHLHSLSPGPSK
# Chain of MAPK8 (human) (P45983 whole entry, looked up): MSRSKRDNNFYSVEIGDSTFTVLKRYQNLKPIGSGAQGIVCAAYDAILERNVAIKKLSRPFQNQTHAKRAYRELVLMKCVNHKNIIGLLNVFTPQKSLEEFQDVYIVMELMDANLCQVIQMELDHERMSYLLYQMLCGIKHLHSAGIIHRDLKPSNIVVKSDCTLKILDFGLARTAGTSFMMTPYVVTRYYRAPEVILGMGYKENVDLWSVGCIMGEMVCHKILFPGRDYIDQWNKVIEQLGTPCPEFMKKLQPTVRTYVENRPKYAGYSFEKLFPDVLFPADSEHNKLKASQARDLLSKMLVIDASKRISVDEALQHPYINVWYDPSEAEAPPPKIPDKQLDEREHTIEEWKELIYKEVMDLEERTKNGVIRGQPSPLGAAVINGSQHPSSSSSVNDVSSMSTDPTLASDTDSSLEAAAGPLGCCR
smiles,measurement,setting,value
CNc1nc(-c2ccc3c(N)n[nH]c3c2)cc(N2C[C@@H](C(=O)NC3CCCCC3)CC[C@H]2C)n1,residual activity,MAP3K5 (human); compound 1.0 µM,106%
same,residual activity,MAP3K5 (human); compound 10.0 µM,99%
same,residual activity,DYRK2 (human); compound 0.01 µM,100%
same,residual activity,DYRK2 (human); compound 0.1 µM,108%
same,residual activity,DYRK2 (human); compound 1.0 µM,97%
same,residual activity,MAPK10 (human); compound 0.01 µM,106%
same,residual activity,MAPK10 (human); compound 0.1 µM,106%
same,residual activity,MAPK10 (human); compound 10.0 µM,97%
same,residual activity,MAP3K1 (human); compound 1.0 µM,87%
same,residual activity,MAP3K1 (human); compound 10.0 µM,104%
same,residual activity,MAP3K11 (human); compound 0.01 µM,100%
same,residual activity,MAP3K11 (human); compound 0.1 µM,110%
same,residual activity,MAP3K11 (human); compound 1.0 µM,80%
same,residual activity,MAP3K11 (human); compound 10.0 µM,44%
same,residual activity,INSR (human); compound 0.01 µM,101%
same,residual activity,INSR (human); compound 0.1 µM,103%
same,residual activity,INSR (human); compound 1.0 µM,101%
same,residual activity,INSR (human); compound 10.0 µM,89%
same,residual activity,EPHB4 (human); compound 1.0 µM,119%
same,residual activity,EPHB4 (human); compound 10.0 µM,117%
same,residual activity,EPHA2 (human); compound 0.01 µM,110%
same,residual activity,EPHA2 (human); compound 0.1 µM,118%
same,residual activity,EPHA2 (human); compound 1.0 µM,100%
same,residual activity,EPHA2 (human); compound 10.0 µM,84%
same,residual activity,TAOK1 (human); compound 1.0 µM,86%
same,residual activity,TAOK1 (human); compound 10.0 µM,96%
same,residual activity,STK3 (human); compound 0.01 µM,116%
same,residual activity,STK3 (human); compound 0.1 µM,128%
same,residual activity,STK3 (human); compound 1.0 µM,91%
same,residual activity,STK3 (human); compound 10.0 µM,84%
same,residual activity,BRSK1 (human); compound 0.01 µM,110%
same,residual activity,BRSK1 (human); compound 0.1 µM,95%
same,residual activity,BRSK1 (human); compound 1.0 µM,53%
same,residual activity,BRSK1 (human); compound 10.0 µM,11%
same,residual activity,EPHB1 (human); compound 1.0 µM,111%
same,residual activity,EPHB1 (human); compound 10.0 µM,118%
same,residual activity,FLT1 (human); compound 0.01 µM,98%
same,residual activity,FLT1 (human); compound 0.1 µM,108%
same,residual activity,FLT1 (human); compound 1.0 µM,89%
same,residual activity,FLT1 (human); compound 10.0 µM,64%
same,residual activity,SYK (human); compound 0.01 µM,109%
same,residual activity,SYK (human); compound 0.1 µM,105%
same,residual activity,SYK (human); compound 1.0 µM,104%
same,residual activity,SYK (human); compound 10.0 µM,105%
same,residual activity,HIPK2 (human); compound 0.01 µM,119%
same,residual activity,HIPK2 (human); compound 0.1 µM,124%
same,residual activity,HIPK2 (human); compound 1.0 µM,95%
same,residual activity,HIPK2 (human); compound 10.0 µM,113%
same,residual activity,PRKCA (human); compound 0.01 µM,104%
same,residual activity,PRKCA (human); compound 0.1 µM,105%
same,residual activity,PRKCA (human); compound 1.0 µM,98%
same,residual activity,PRKCA (human); compound 10.0 µM,96%
same,residual activity,AURKA (human); compound 0.01 µM,112%
same,residual activity,AURKA (human); compound 0.1 µM,115%
same,residual activity,AURKA (human); compound 1.0 µM,98%
same,residual activity,AURKA (human); compound 10.0 µM,89%
same,residual activity,HIPK1 (human); compound 0.01 µM,102%
same,residual activity,HIPK1 (human); compound 0.1 µM,105%
same,residual activity,HIPK1 (human); compound 1.0 µM,94%
same,residual activity,HIPK1 (human); compound 10.0 µM,112%
same,residual activity,MAPK8 (human); compound 0.01 µM,92%
same,residual activity,MAPK8 (human); compound 0.1 µM,108%
same,residual activity,MAPK8 (human); compound 1.0 µM,94%
same,residual activity,MAPK8 (human); compound 10.0 µM,108%
same,residual activity,EPHB2 (human); compound 1.0 µM,119%
same,residual activity,EPHB2 (human); compound 10.0 µM,111%
same,residual activity,[1]; compound 0.01 µM,111%
same,residual activity,[1]; compound 0.1 µM,106%
same,residual activity,[1]; compound 1.0 µM,108%
same,residual activity,[1]; compound 10.0 µM,81%
same,residual activity,BRSK2 (human); compound 0.01 µM,114%
same,residual activity,BRSK2 (human); compound 0.1 µM,110%
same,residual activity,BRSK2 (human); compound 10.0 µM,15%
same,residual activity,GCK (human); compound 0.01 µM,109%
same,residual activity,GCK (human); compound 0.1 µM,116%
same,residual activity,GCK (human); compound 1.0 µM,97%
same,residual activity,GCK (human); compound 10.0 µM,86%
same,residual activity,TBK1 (human); compound 0.01 µM,110%
same,residual activity,TBK1 (human); compound 0.1 µM,115%
same,residual activity,TBK1 (human); compound 1.0 µM,89%
same,residual activity,TBK1 (human); compound 10.0 µM,81%
same,residual activity,[2]; compound 1.0 µM,98%
same,residual activity,[2]; compound 10.0 µM,36%
same,residual activity,MAPK11 (human); compound 0.01 µM,113%
same,residual activity,MAPK11 (human); compound 0.1 µM,129%
same,residual activity,MAPK11 (human); compound 1.0 µM,105%
same,residual activity,MAPK11 (human); compound 10.0 µM,109%
same,residual activity,CaMK1 (human); compound 0.01 µM,108%
same,residual activity,CaMK1 (human); compound 0.1 µM,112%
same,residual activity,CaMK1 (human); compound 1.0 µM,89%
same,residual activity,CaMK1 (human); compound 10.0 µM,95%
same,residual activity,PIM1 (human); compound 0.01 µM,99%
same,residual activity,PIM1 (human); compound 0.1 µM,100%
same,residual activity,PIM1 (human); compound 1.0 µM,112%
same,residual activity,PIM1 (human); compound 10.0 µM,93%
same,residual activity,MARK3 (human); compound 0.01 µM,113%
same,residual activity,MARK3 (human); compound 0.1 µM,109%
same,residual activity,MARK3 (human); compound 1.0 µM,88%
same,residual activity,MARK3 (human); compound 10.0 µM,87%
same,residual activity,MAPK9 (human); compound 0.01 µM,117%
same,residual activity,MAPK9 (human); compound 0.1 µM,126%
same,residual activity,MAPK9 (human); compound 1.0 µM,104%
same,residual activity,MAPK9 (human); compound 10.0 µM,114%
same,residual activity,BTK (human); compound 0.01 µM,126%
same,residual activity,BTK (human); compound 0.1 µM,121%
same,residual activity,BTK (human); compound 1.0 µM,97%
same,residual activity,BTK (human); compound 10.0 µM,90%
same,residual activity,MAP2K1 (human); compound 0.01 µM,86%
same,residual activity,MAP2K1 (human); compound 0.1 µM,101%
same,residual activity,MAP2K1 (human); compound 1.0 µM,85%
same,residual activity,MAP2K1 (human); compound 10.0 µM,74%
same,residual activity,MAPKAPK5 (human); compound 0.01 µM,81%
same,residual activity,MAPKAPK5 (human); compound 0.1 µM,92%
same,residual activity,MAPKAPK5 (human); compound 1.0 µM,110%
same,residual activity,MAPKAPK5 (human); compound 10.0 µM,95%
same,residual activity,DYRK3 (human); compound 0.01 µM,100%
same,residual activity,DYRK3 (human); compound 0.1 µM,103%
same,residual activity,DYRK3 (human); compound 1.0 µM,94%
same,residual activity,DYRK3 (human); compound 10.0 µM,88%
same,residual activity,YES1 (human); compound 0.01 µM,122%
same,residual activity,YES1 (human); compound 0.1 µM,119%
same,residual activity,YES1 (human); compound 1.0 µM,106%
same,residual activity,YES1 (human); compound 10.0 µM,98%
same,residual activity,JAK2 JH1 JH2 (human); compound 1.0 µM,108%
same,residual activity,JAK2 JH1 JH2 (human); compound 10.0 µM,99%
